The source of these data is patent US11718593B2, “2,5-aryl-thiazole analogs for the treatment of neurodegenerative diseases” (Southern Research Institute, priority 2018, dated 2023).

One series has as its system NF-κB. The series is described as follows: High throughput assay for NF-κB reporter activity (luciferase, stably transfected SH-SY5Y cells). The format is cell-based, human. The following applies: Homo sapiens, SH-SY5Y, read-out: EC50. Here is the method:
SH-SY5Y human neuroblastoma cell line was obtained from the American Tissue Culture collection (ATCC). A commercially available expression vector containing the NF-kB promoter enhancer region driving the firefly luciferase gene expression and a second plasmid containing the gene conferring resistance to blasticidin were used in a dual transfection approach to obtain a stable cell line. SH-SY5Y cells stably transfected with pNF-κB-luc/pEF6 were plated at 8,000 per well in a volume of 40 μl DMEM in either Corning white opaque, 384-well plates (Cat. No. 3570, Corning, Inc., Corning, N.Y.) or Corning black clear bottom, 384-well plates (Cat. No. 3712, Corning, Inc., Corning, N.Y.) and treated with test compounds for 24 hr at 37° C. Luciferase activity was measured as a reporter of NF-kB activation using the Bright-Glo Luciferase assay kit (Cat. No. E2620, Promega, Madison, Wis.) according to the manufacturer's instructions. Cell viability was measured using the CellTiter-Glo Luminescent Cell Viability assay kit (Cat. No. G7572, Promega, Madison, Wis.) according to the manufacturer's instructions. Briefly, cells were equilibrated at room temperature for 30 min prior to the addition of Bright-Glo to the white opaque plates or CellTiter-Glo to the black clear bottom plates. A volume of assay buffer equal to the volume of cell media was added to each well and incubated for five min to allow complete cell lysis. All procedures were performed in the dark. Luminescence was measured by the Synergy4 Multi-detection microplate reader (BioTek, Winooski, Vt.) within 15 min of lysis.

The next series relates to MDR/MDCK cells. The series is described as follows: Permeability in MDR/MDCK cells. Type of series: in vitro ADME, Canine. From the text:
(§1) A standard panel of in vitro ADME assays will be utilized to assess drug-like properties of compounds and to inform subsequent in vivo PK studies. These assays include: (a) Permeability: MDCK (Madin Darby Canine Kidney) cells transfected with the MDR1 gene encoding for the multi-drug resistant transporter (Pgp) will be utilized to determine a compound's ability to permeate the membrane in apical to basolateral (A-B) and basolateral to apical (B-A) directions. The derived apparent permeability coefficient (Papp) provides an estimate of passive permeability; a ratio of Papp in the B-A/A-B direction gives an estimate of transporter efflux; (b) Solubility: Kinetic solubility is an important parameter for accurate determinations of the dose response. This is estimated using the shake flask method with a μSol Explorer (PION, Billerica, Mass.) at pH 7.4. Compounds are added as a DMSO solution to buffer. The average of two determinations at pH 7.4 will be reported. Solubility at pH 7.4 is relevant for in vitro assays; (c) Metabolic Stability: The potential for a high metabolic clearance compound is estimated using a liver microsome assay. […] The disappearance of the parent molecule is measured by liquid chromatography/mass spectroscopy (LC/MS) detection. […]

The nature of the next series: Solubility. To be noted: buffer, pH 7.4, aqueous buffer, kinetic from dmso stock. Type of series: physicochemical.
Text: as §1

Series [1] in a line: Bioavailability / PK study (IV and PO). The format is in vivo, mouse. The following applies: male, CD1, mouse, plasma. The method, then: The experiments will involve the administration of compounds to 5-6 week old CD1 male mice. Mice are dosed by either a 1 mg/kg IV bolus or 5 mg/kg oral gavage. Blood samples are collected by cardiac puncture at 0, 0.25, 0.5, 1, 2, 4, 6, 8, 12, and 24 hrs. There will be three mice per time point. Plasma concentration over time will be determined by LC/MS from which the standard PK parameters of clearance, volume of distribution, t1/2 and % F can be derived using WinNoLin software (Pharsight Inc.). This will require a total of 60 mice per compound. Plasma will be analyzed by reverse phase chromatography with MS/MS detection operating in the positive ion mode using multiple reaction monitoring using an internal standard and Applied Biosystems Analyst 1.4 software. Peak time (when maximum plasma drug concentration occurs), peak drug level [approximate maximum concentrations of drug in plasma (Cmax)] and tin for drug elimination will be estimated for each tested compound. Bioavailability (F) will be calculated from the ratio of AUCPO/AUCIV and expressed as a percentage. To determine levels in brain, six additional mice will be dosed with 1 mg/kg I.V. and sacrificed at 0.25 and 1 hr. Brain and spinal cord samples will be collected at these two time points, quick frozen in an ice box and kept at −75±15° C. All samples will be weighed and homogenized with phosphate buffered saline (PBS) by brain weight (g) to PBS volume (mL) ratio 1:3 before analysis. The actual concentration is the detected value multiplied by the dilution factor.

A word on the EC50: it is the concentration that produces a half-maximal response. What is called solubility is how much of the substance goes into solution per volume. Lower therefore signals a poorly soluble substance. A word on the Cmax: it is the highest concentration seen after dosing.

Values after ≈ are worked out from the molar mass of the structure shown. Read-outs that look alike come from different tables or passages of the source.

As for `O=C(O)c1cccc(-c2csc(Nc3ccccc3F)n2)c1` [Compound 3, 3-(2-((2-Fluorophenyl)amino)thiazol-4-yl)benzoic acid], the 50% effective concentration (EC50) was 0.84 µM with NF-κB (Table 2, unit not given (μM for nos. 3 and 20)); approximately 1 µM in the series on NF-κB. For the same compound, the efflux result in the series on MDR/MDCK cells was “no efflux was observed”. For the same compound, in the series on MDR/MDCK cells, the permeability entry is listed as “highly permeable”. Also, in the series “Solubility”, the solubility was 80 µM (≈ 25.1 µg/mL). This compound also displayed a Cmax in series [1] (oral, 5 mg/kg dose) of 100 ng/mL. Also, the bioavailability in series [1] (1 mg/Kg IV and 5 mg/Kg po, read-out: orally bioavailable) amounted to 26%.
